Results from the NIST ThermoML archive (doi:10.1016/j.jct.2010.11.007).

Assay: refractive index (Na D-line) (dimensionless); xn = mol fraction of the nth substance listed
Conditions: 101 kPa, Liquid, Standard Abbe refractometry

C=CC(C)(O)CCC=C(C)C (stereo not drawn) [3,7-dimethyl-1,6-octadien-3-ol] + CCCO
refractive index
Conditions | 283.15 K | 298.15 K | 313.15 K | 328.15 K
x1 = 0.0533 | 1.39881 | 1.39255 | 1.38616 | 1.3796
x1 = 0.1051 | 1.40707 | 1.40075 | 1.39427 | 1.38756
x1 = 0.2014 | 1.41983 | 1.41337 | 1.40675 | 1.39986
x1 = 0.3032 | 1.43049 | – | – | –
x1 = 0.3049 | – | 1.42409 | 1.41728 | 1.41023
x1 = 0.3869 | 1.43761 | 1.43088 | 1.42395 | 1.41687
x1 = 0.4929 | – | – | – | 1.42395
x1 = 0.4951 | 1.44504 | 1.4382 | 1.43113 | –
x1 = 0.5917 | 1.45054 | 1.44367 | 1.43657 | 1.42935
x1 = 0.6895 | 1.45535 | 1.4484 | 1.44114 | 1.4339
x1 = 0.767 | – | – | – | 1.4371
x1 = 0.7765 | 1.45896 | 1.45193 | 1.44473 | –
x1 = 0.8735 | 1.46254 | 1.45549 | 1.44824 | 1.44085
x1 = 0.9296 | 1.46441 | 1.4573 | 1.44997 | 1.44249
x1 = 1 | 1.4666 | 1.45946 | 1.45215 | 1.44473
